Read-outs that look alike come from different tables or passages of the source.
Legend:
B10.RIII mice = system: B10.RIII mice
Description: Female B10.RIII were injected subcutaneously at two sites (between shoulder blades and in pelvic region) with a total of 200 μg interphotoreceptor binding protein peptide (IRBP) 161-180 (New England Peptide; Fitchburg, Mass.), respectively in 2 mg/ml complete Freund's adjuvant (CFA; Sigma, St. Louis, Mo.) with mycobacterium tuberculosis H37Ra (Difco, Detroit, Mich.).
The eyes of mice are dilated using one or two drops of Mydriacyl 1% (Alcon; Humacao, Puerto Rico) and rested in a darkened room for approximately 5 min. Mice are manually restrained and the retinas of both eyes are visualized using an indirect ophthalmoscope with a 78 diopter lens. The eyes are scored for inflammation using a progressive scoring system between 0-5. Score 0: Normal retina. Score 1: Vascular inflammation proximal to the optic nerve. Score 2: <5 inflammatory lesions confined to one quadrant of the eye. Score 3: >5 inflammatory lesions in more than one quadrant of the eye. Score 4: Inflammatory lesions are contiguous. Score 5: Retinal detachment. Whole eyes from mice were harvested and placed in PBS. The eyes were embedded in OCT media for frozen fixation. 5-μm sections were cut through the papillary-optic nerve plane and stained with hematoxylin and eosin.
Uveitis was induced in B10.RIII mice with an injection of IRBP 161-180 and CFA.
Current forms of therapy for uveitis include corticosteroids and immunosuppressive agents. […] Uveitis was induced in B10.RIII mice with IRBP161-180 and CFA injections. […] Mice were treated daily for 21 days.
EAU was induced in female B10.RIII mice with IRBP 161-180.
Uveitis was induced in B10.RIII mice with IRBP161-180 and CFA injections. […] Individual weights of the mice were recorded at 4 timepoints throughout the course of disease.
B10.RIII mice were injected with IRBP161-180 and CFA to induce uveitis. […] Treatment was initiated at peak time of disease when mice reached eye scores of 4 which included inflammatory lesions throughout the posterior segment of the eye and possible hemorrhaging.

C57BL/6 mice = experiment: MOG35-55 primed mice treated in the priming phase: recall response, cytokines, macrophage markers; type: in vivo
Description: C57BL/6 mouse splenocytes and lymph node cells were cultured in 96 well plates 5×10^5 cells/well. MOG35-55 or OVA 257-264 peptide was added to wells at a concentration of 25 μg/ml. Supernatant was collected at 48 hrs after MOG peptide stimulation. After 3 days in culture cells were pulsed with [3H] thymidine at 1 μCi/well for 8 hrs. Thymidine incorporation was measured by cpm.
Total RNA was extracted from tissues with TRIZOL® (Invitrogen, Carlsbad, Calif.). 1 μg of total RNA was reverse transcribed and used in quantitative PCR by using SYBR® green incorporation with reagents from Applied Biosystems (Foster City, Calif.) on an ABI 7900. A cDNA standard was run in each PCR for cytokine targets and message concentrations were normalized to mouse β-actin. […] The sequences for mouse IL-10 primers were forward: […] (SEQ ID NO:29) and reverse: […] (SEQ ID NO:30) (2). The sequences for mouse β-actin primers were: forward […] (SEQ ID NO:31) and reverse […] (SEQ ID NO:32) (3).
Flow cytometric analysis of inflammatory cytokine profiles of mouse serum or cell supernatant were measured using the Cytometric Bead Array Kit (CBA) made by BD Biosciences (San Jose, Calif.). Samples were processed according to the manufacturer's protocol.
On Day 9, spleen and draining lymph nodes were harvested and analyzed for recall responses to MOG35-55 peptide in vitro by [3H] thymidine incorporation.
Cytokine levels were evaluated through a cytometric bead array by flow cytometry.
Spleens from individual mice were harvested on Day 9 and mRNA cytokine expression was quantitated using real time PCR. […] Naïve mice that were not immunized with MOG peptide were used to quantitate baseline mRNA levels of TNF-α and IL-10.
Blood serum samples were also collected on day 9 of the study and evaluated for cytokine levels: TNF-α, MCP-1, IL-12, IL-10, and IL-6 (FIGS. 13C and 13D).

MC3R = MC3R (Homo sapiens, UniProt P41968); experiment: Competitive binding with 125I-NDP-MSH, HEK293 membrane preparations, MC3R
Description: (§1) Binding analysis was done by Cerep laboratories (Paris, France) with coded samples.
(§2) The mixtures were filtered through 96-well GFC filters (Millipore, Billerica, Mass.), washed 3 times with binding buffer without BSA, dried and counted.
(§3) A competitive binding assay using a MCR panel including MCR 1, 3, 4, and 5 was performed.

MC1R = MC1R (Homo sapiens, UniProt Q01726); experiment: Competitive binding with 125I-NDP-MSH, HEK293 membrane preparations, MC1R;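 note: Read-out: receptor-bound radioligand retained by filtration and counted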
Description: as §1, §2, §3

[1] = 100 μg i.p. days 2-8, harvested day 9

Chain of MC1R (Q01726 whole entry): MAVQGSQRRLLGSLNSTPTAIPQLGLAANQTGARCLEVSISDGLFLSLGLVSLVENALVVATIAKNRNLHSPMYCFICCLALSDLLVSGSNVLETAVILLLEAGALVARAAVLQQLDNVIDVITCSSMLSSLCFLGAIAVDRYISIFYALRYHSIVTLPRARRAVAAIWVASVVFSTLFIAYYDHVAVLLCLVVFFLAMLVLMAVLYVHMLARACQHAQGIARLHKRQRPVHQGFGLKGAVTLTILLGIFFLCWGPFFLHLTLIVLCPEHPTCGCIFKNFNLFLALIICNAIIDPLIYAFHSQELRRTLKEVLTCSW
Chain of MC3R (P41968 whole entry): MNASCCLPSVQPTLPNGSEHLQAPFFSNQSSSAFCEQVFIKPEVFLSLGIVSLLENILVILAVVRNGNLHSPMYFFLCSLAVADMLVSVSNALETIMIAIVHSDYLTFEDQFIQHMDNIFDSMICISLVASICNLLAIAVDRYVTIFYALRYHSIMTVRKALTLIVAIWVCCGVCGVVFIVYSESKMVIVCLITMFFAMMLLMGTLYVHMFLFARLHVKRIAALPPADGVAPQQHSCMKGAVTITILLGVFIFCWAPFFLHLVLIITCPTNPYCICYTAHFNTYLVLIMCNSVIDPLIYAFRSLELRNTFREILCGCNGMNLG

- Ki (MC3R): > 30000 nM
- binding to MCR-3 (in words) (MC3R; MCR panel 1, 3, 4, 5): bind only to MCR-1
- affinity for MC1R lower than that of the native MSH peptide (MC1R): 11 fold
- Ki (MC1R; Ki MC1R, competition with 125I-NDP-MSH): 4.6 ± 1.3 nM
- binding to MCR-1 (in words) (MC1R; MCR panel 1, 3, 4, 5): bind only to MCR-1
SMILES: CSCC[C@@H](NC(=O)[C@@H](CCC(=O)O)NC(=O)[C@@H](Cc1c[nH]cn1)NC(=O)[C@@H](Cc1ccccc1)NC(=O)[C@@H](CCCNC(=N)N)NC(=O)[C@@H](Cc1c[nH]c2ccccc12)NC(=O)CNC(=O)[C@@H](CCCCN)NC(=O)[C@H]1CCCN1C(=O)[C@H](NC(C)=O)C(C)C)C(=O)N[C@H](CO)C(=O)N[C@H](Cc1ccc(O)cc1)C(=O)N[C@H](CO)C(N)=O [RI-MSH, vpkGwrfhemsys]
- uveitis course (in words) (B10.RIII mice; 3 μg/mouse i.p. daily from eye scores of 4): did not reduce or inhibit disease
- uveitis course (in words) (B10.RIII mice; 10 μg/mouse i.p. daily from eye scores of 4): rapidly ameliorated uveitis
- mean clinical eye scores vs scrambled peptide (in words) (B10.RIII mice; 100 μg/mouse i.p. daily for 13 days from eye scores 2-3, days 15, 21 and 23): significant reduction
- uveitis course (in words) (B10.RIII mice; 100 μg/mouse i.p. daily from eye scores of 4): rapidly ameliorated uveitis
- mice with individual maximum eye scores ≤1 (B10.RIII mice; 100 μg/mouse i.p. daily, day 23 after disease induction): 75%
- efficacy in uveitis, treatment at onset of disease (in words) (B10.RIII mice; 100 μg/mouse i.p., from eye score 1, data not shown): had efficacy in uveitis
- mean clinical eye scores vs PBS (in words) (B10.RIII mice; 100 μg/mouse i.v. daily from eye scores of 2): significant reduction of mean clinical eye scores
- eye score in retina images (median of group) (B10.RIII mice; 100 μg/mouse i.v. daily from late stage, day 13 after start of treatment): 1
- histological examination of the eyes (in words) (B10.RIII mice; 100 μg/mouse i.v. daily, 10 days after start of treatment): reduced pathology in the eye
- mice with eye scores of 3 or greater (B10.RIII mice; 100 μg/mouse i.v. daily, day 13 after start of treatment): 2 of the 11
- mice with a maximum eye score of 3 or greater (B10.RIII mice; 100 μg/mouse i.v. daily, day 16, four days after start of treatment): 0 of the 8
- proliferative recall response of spleen cells to MOG35-55 (in words) (C57BL/6 mice; [1]): slight reduction in recall responses
- recall response of lymph node cells to MOG peptide (in words) (C57BL/6 mice; [1]): did not show a significant difference
- expression of CD86, CD40, CD14 on splenic CD11b+ or F4/80+ macrophages (in words) (C57BL/6 mice; 7 days of daily dosing, 100 μg/mouse): no difference in the expression levels
- TNF-α, IFNγ, IL-6 and MCP-1 levels in spleen cell supernatant vs PBS (in words) (C57BL/6 mice; cells stimulated with MOG35-55 in vitro): decrease
- serum IL-6 vs PBS (in words) (C57BL/6 mice; day 9): decrease
- serum IL-10 (in words) (C57BL/6 mice; day 9): no difference
- serum MCP-1 vs PBS (in words) (C57BL/6 mice; day 9): significantly decreased
- serum TNF-α and IL-12 vs PBS (in words) (C57BL/6 mice; day 9): decrease
- IL-10 and TNF-α mRNA in spleen vs PBS (in words) (C57BL/6 mice; priming phase, treated days 2-8, day 9): decreased levels

Reference: patent publication US10385108B2, “Peptide analogs of alpha-melanocyte stimulating hormone” (Genzyme Corporation, priority 2008, dated 2019)
